# Laboratory results taken from patent publication US10501447B2, “Imidazolecarboxamides and their use as FAAH inhibitors” (BIAL-PORTELA & Ca, S.A., priority 2013, dated 2019).
# What was measured:
# [1] = CYPs metabolic stability assay in MLM; format: in vitro ADME, mouse; conditions: 1 h, 50 μM compound; for Metabolic Stability (% of Remaining) Mouse CYP+: with NADPH; for Metabolic Stability (% of Remaining) Mouse CYP−: without NADPH (control value)
# Description: (§1) Stability of the test compounds was performed in MLM (mouse liver microsomes) or HLM (human liver microsomes) in the presence and in the absence of NADPH.
# (§2) The stability was measured using the incubation mixture (100 μl total volume) contained 1 mg/ml total protein, MgCl2 5 mM and 50 mM K-phosphate buffer. Samples were incubated in the presence and in the absence of NADPH 1 mM. Reactions were pre-incubated 5 min and the reaction initiated with the compound under test (5 μM for HLM and 50 μM for MLM). Samples were incubated for 60 min in a shaking water bath at 37° C. The reaction was stopped by adding 100 μl of acetonitrile. Samples were then centrifuged, filtered and supernatant injected in HLPC-MSD. Test compounds were dissolved in DMSO and the final concentration of DMSO in the reaction was below 0.5% (v/v). At T0 acetonitrile was added before adding the compound. All experiments were performed with samples in duplicate.
# (§3) The stability data are given as % of remaining compound after 1 h exposure to MLM or HLM. 100% means no metabolic reaction at all and 0% corresponds to full enzymatic degradation. “CYP−” refers to the absence of cofactor (NADPH) which is essential for CYP metabolic reactions. Therefore “CYP−” can be regarded as control value. “CYP+” refers to the presence of cofactor and the enzymatic degradation may take place according to the stability of the test compound.
# [2] = target: T1, FAAH (Mus musculus, UniProt O08914); assay: FAAH activity in brain homogenate after oral dosing of mice; format: in vivo; conditions: 8 h, remaining activity vs controls, low value = strong inhibitor, read-out: FAAH Activity (%) Br h
# T1 construct: A fragment of liver and brain without cerebellum were removed and put in plastic vials containing membrane buffer; from tissue; host or cells: brain (without cerebellum) and liver homogenates of male NMRI mice
# T1 sequence (O08914 1-579): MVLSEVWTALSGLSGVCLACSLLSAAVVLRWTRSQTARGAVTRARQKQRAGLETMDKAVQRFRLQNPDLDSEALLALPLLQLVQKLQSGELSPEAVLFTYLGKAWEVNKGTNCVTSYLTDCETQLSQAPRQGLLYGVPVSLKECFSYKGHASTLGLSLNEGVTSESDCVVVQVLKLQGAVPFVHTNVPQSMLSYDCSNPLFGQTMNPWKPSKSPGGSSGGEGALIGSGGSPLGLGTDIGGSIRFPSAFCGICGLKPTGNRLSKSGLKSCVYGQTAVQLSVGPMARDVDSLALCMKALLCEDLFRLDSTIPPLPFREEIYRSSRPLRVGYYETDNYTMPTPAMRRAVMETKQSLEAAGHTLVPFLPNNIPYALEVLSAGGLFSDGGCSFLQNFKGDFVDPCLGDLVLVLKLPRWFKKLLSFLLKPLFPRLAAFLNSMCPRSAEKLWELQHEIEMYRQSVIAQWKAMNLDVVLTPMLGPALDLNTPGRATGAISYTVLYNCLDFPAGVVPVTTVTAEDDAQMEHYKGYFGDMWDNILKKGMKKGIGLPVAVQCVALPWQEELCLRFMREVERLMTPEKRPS
# Description: (§4) In vivo testing was performed according to the protocol described below. BRh (brain homogenate) indicates inhibition in central nervous tissue, in this case, brain, and LVh (liver homogenate) indicates inhibition in peripheral tissue, in this case, liver. The controls were the reaction mix minus the test compounds. Therefore, a low value for the test compound indicates a strong inhibitor.
# (§5) The animals used for experiments were male NMRI mice (weighing 27-44 g) obtained from Interfauna Ibérica (Spain). Mice were kept 5 per cage, under controlled environmental conditions (12 hr light/dark cycle and room temperature 22±1° C.). Food and tap water were allowed ad libitum and the experiments were all carried out during daylight hours.
# (§6) Animals were always fasted overnight before administration of compounds.
# (§7) Animals were administered the appropriate dose of the compound of the invention via oral route (8 ml/kg; compound suspended in 0.5% carboxymethylcellulose (CMC) or solubilized in water) or vehicle (controls) using animal feeding stainless steel curve needles (Perfectum, U.S.A.). Fifteen minutes before sacrifice animal were anesthetized with pentobarbital 60 mg/kg administered intraperitoneally. A fragment of liver and brain without cerebellum were removed and put in plastic vials containing membrane buffer (3 mM MgCl2, 1 mM EDTA, 50 mM Tris HCl pH 7.4). Tissues were stored at −30° C. until analysis.
# Anandamide [ethanolamine-1-^3H-] (40-60 Ci/mmol) was obtained from American Radiochemicals. All other reagents were obtained from Sigma-Aldrich. […]
# (§8) Total protein in tissues was determined with the BioRad Protein Assay (BioRad) using a standard curve of BSA (50-250 μg/ml).
# Reaction mix (total volume of 200 μl) contained: 2 μM AEA (2 μM AEA+5 nM ^3H-AEA), 0.1% fatty acid free BSA, 15 μg (brain) or 5 μg (liver) protein, in 1 mM EDTA, 10 mM Tris pH 7.6. […] Counts per minute (cpm) were determined in a MicrobetaTriLux scintillation counter. […]
# (§9) The percentage of remaining enzymatic activity was calculated with respect to controls and after blank subtraction.
# [3] = CYPs metabolic stability assay in HLM; format: in vitro ADME, human; conditions: 1 h, 5 μM compound; for Metabolic Stability (% of Remaining) Human CYP+: with NADPH; for Metabolic Stability (% of Remaining) Human CYP−: without NADPH (control value)
# Description: as §1, §2, §3
# [4] = target: T2, FAAH (Rattus norvegicus, UniProt P97612); assay: FAAH activity in liver homogenate after oral dosing of rats; format: in vivo; conditions: gavage; for activity at 0.1 mg/kg: rat, po
# T2 construct: Liver biopsies and brain samples (without cerebellum) were collected and placed in a plastic vial containing membrane buffer; from tissue; host or cells: liver homogenate of male Wistar rats
# T2 sequence (P97612 1-579): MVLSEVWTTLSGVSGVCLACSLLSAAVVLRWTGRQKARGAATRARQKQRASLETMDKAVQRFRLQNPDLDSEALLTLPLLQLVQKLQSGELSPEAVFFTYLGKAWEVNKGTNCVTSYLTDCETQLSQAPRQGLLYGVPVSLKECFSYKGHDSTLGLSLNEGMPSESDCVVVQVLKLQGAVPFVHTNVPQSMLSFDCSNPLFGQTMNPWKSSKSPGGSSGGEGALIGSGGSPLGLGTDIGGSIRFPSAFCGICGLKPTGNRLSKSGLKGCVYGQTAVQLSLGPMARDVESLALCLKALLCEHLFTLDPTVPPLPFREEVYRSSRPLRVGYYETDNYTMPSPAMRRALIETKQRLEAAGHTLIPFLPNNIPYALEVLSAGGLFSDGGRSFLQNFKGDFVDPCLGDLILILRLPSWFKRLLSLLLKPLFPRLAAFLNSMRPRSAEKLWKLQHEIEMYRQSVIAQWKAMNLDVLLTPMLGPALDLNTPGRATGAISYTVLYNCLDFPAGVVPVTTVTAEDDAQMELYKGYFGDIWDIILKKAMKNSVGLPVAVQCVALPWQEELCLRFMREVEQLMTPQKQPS
# Description: as §4
# Male Wistar rats (body weight range: 190-230 g) were obtained from Harlan (Spain). Rats were kept 5 per cage, under controlled environmental conditions (12 hr light/dark cycle and room temperature 22±1° C.). Food and tap water were allowed ad libitum and the experiments were all carried out during daylight hours.
# Rats were administered the appropriate dose of compound of the invention via gavage (administration volume=4 ml/kg body weight) using animal feeding stainless steel curve needles (Perfectum, U.S.A.). Vehicle was 0.5% CMC in Milli Q water. Rats were fasted at least 15 h before experiments.
# Fifteen minutes before sacrifice animals were anesthetized with pentobarbital i.p. 60 mg/kg body weight. Liver biopsies and brain samples (without cerebellum) were collected and placed in a plastic vial containing membrane buffer (3 mM MgCl2, 1 mM EDTA, 50 mM Tris HCl pH 7.4) and, in the case of liver samples, glass beads (2.5 mm BioSpec Products). Tissues were stored at −20° C. until analysis.
# Anandamide [ethanolamine-1-3H-] was obtained from American Radiochemicals (specific activity of 60 Ci/mmol). All other reagents were obtained from Sigma-Aldrich. Optiphase Supermix was obtained from Perkin Elmer.
# Tissues were thawed on ice; livers were homogenized in a Precellys 24 Dual Tissue Homogenizer (Bertin Technologies) for 2 cycles of 5 sec with an interval of 5 min in ice and brains were homogenized with Heidolph Silent Crusher M (probe 8 F/M) for about 45 sec at maximum velocity. Total protein in homogenates was determined with the BioRad Protein Assay (BioRad) using a standard curve of BSA (50-250 μg/ml).
# Reaction mix (total volume of 200 μl) contained: 2 μM AEA (2 μM AEA+5 nM 3H-AEA), 0.1% fatty acid free BSA, 15 μg (brain) or 1.5 μg (liver) protein, in 1 mM EDTA, 10 mM Tris pH 7.6. After 15 minutes pre-incubation at 37° C. reaction was started by the addition of the substrate solution (cold AEA+radiolabelled AEA+BSA). Reaction was carried out for 7 minutes for liver samples and for 10 min for brain samples and terminated by addition of 400 μL chloroform:methanol (1:1, v/v) solution. Reaction samples were vortex twice, left on ice for 5 minutes and then centrifuged in microfuge (7 minutes, 7000 rpm). Two-hundred μl of supernatants were added to 800 μl Optiphase Supermix scintillation cocktail previously distributed in 24-well plates. Counts per minute (cpm) were determined in a Microbeta TriLux scintillation counter. In each assay blank samples (without protein) were prepared. The percentage of remaining enzymatic activity was calculated in respect to controls and after blank subtraction.
# [5] = target: T1, FAAH; assay: FAAH activity in liver homogenate after oral dosing of mice; format: in vivo; conditions: for Peripheral Selectivity: FAAH activity in the liver divided by FAAH activity in the brain (3 mg/kg, 8 h, po), lower = peripherally more selective; for activity at 1 mg/kg / activity at 0.3 mg/kg / activity at 3 mg/kg / activity at 0.1 mg/kg / activity at 0.01 mg/kg / activity at 0.03 mg/kg: mouse, po; for activity at 3 mg/kg: liver homogenate, remaining activity vs controls, read-out: FAAH Activity (%) Lv h
# Description: as §4, §5, §6, §7
# Anandamide [ethanolamine-1-^3H-] (40-60 Ci/mmol) was obtained from American Radiochemicals. All other reagents were obtained from Sigma-Aldrich. Optiphase Supermix was obtained from Perkin Elmer and activated charcoal was obtained from Sigma-Aldrich.
# Tissues were thawed on ice and were homogenized in 10 volumes of membrane buffer (3 mM MgCl2, 1 mM EDTA, 50 mM Tris HCl pH 7.4) with either Potter-Elvejhem (brains—8 strokes at 500 rpm) or Heidolph Diax (livers—2 strokes at position 5 for 20 sec with 30 sec pauses).
# as §8
# Reaction mix (total volume of 200 μl) contained: 2 μM AEA (2 μM AEA+5 nM ^3H-AEA), 0.1% fatty acid free BSA, 15 μg (brain) or 5 μg (liver) protein, in 1 mM EDTA, 10 mM Tris pH 7.6. After a 15 min pre-incubation period at 37° C., reaction was started by the addition of the substrate solution (cold AEA+radiolabelled AEA+BSA). Reaction was carried out for 10 min (brain) or 7 min (liver) before termination by the addition of 400 μl activated charcoal suspension (8 g charcoal in 32 ml 0.5 M HCl in continuous agitation). After a 30 min incubation period at room temperature with agitation, charcoal was sedimented by centrifugation in microfuge (10 min at 13000 rpm). 200 μl of the supernatant were added to 800 μl Optiphase Supermix scintillation cocktail previously distributed in 24-well plates. Counts per minute (cpm) were determined in a MicrobetaTriLux scintillation counter.
# In each assay blanks (without protein) were prepared.
# as §9
Metabolic Stability (% of Remaining) Mouse CYP+ [1] [%],Metabolic Stability (% of Remaining) Mouse CYP− [1] [%],activity at 3 mg/kg [2] [%],melting point [°C],Metabolic Stability (% of Remaining) Human CYP+ [3] [%],Metabolic Stability (% of Remaining) Human CYP− [3] [%],"FAAH Activity (%) rat Liver ([4]; Dose: 1 mg/k9, 1 h) [%]","FAAH Activity (%) rat Liver ([4]; Dose: 1 mg/k9, 8 h) [%]","FAAH Activity (%) rat Liver ([4]; Dose: 1 mg/k9, 24 h) [%]",Peripheral Selectivity [5],activity at 1 mg/kg ([5]; 1 h) [%],activity at 0.3 mg/kg ([5]; 8 h) [%],activity at 3 mg/kg ([5]; 8 h) [%],activity at 0.1 mg/kg ([4]; 1 h) [%],activity at 0.1 mg/kg ([4]; 8 h) [%],activity at 0.1 mg/kg ([5]; 1 h) [%],activity at 0.01 mg/kg ([5]; 8 h) [%],activity at 0.03 mg/kg ([5]; 8 h) [%],activity at 0.1 mg/kg ([5]; 8 h) [%],Compound
93,100,117,128,96,102,9.8,4.8,22.7,0.042,8.5,36.1,4.9,–,–,–,–,–,–,"CN(C(=O)n1cnc(-c2cccc(NS(N)(=O)=O)c2)c1)C1CCOCC1 [Compound 1, N-Methyl-4-(3-(sulfamoylamino)phenyl)-N-(tetrahydro-2H-pyran-4-yl)-1H-imidazole-1-carboxamide]"
86,83,81.7,232,100,94,25.7,18.2,17.8,0.018,2.3,5.6,1.5,78.2,59.1,21.9,48.2,42.9,6.7,"CCC(=O)N1CCC(N(C)C(=O)n2cnc(-c3ccc(O)c(C)c3)c2)CC1 [Compound 2, 4-(4-Hydroxy-3-methylphenyl)-N-methyl-N-(1-propionylpiperidin-4-yl)-1H-imidazole-1-carboxamide]"
98,91,91.7,204,99,102,–,–,–,0.020,–,7.2,1.8,83.5,62.5,37.9,56.3,53,10.7,"Cc1cc(-c2cn(C(=O)N(C)C3CCN(C(=O)C4CC4)CC3)cn2)ccc1O [Compound 3, N-(1-(Cyclopropanecarbonyl)piperidin-4-yl)-4-(4-hydroxy-3-methylphenyl)-N-methyl-1H-imidazole-1-carboxamide]"
